Target: T1, KRAS G12C 1-169, his-tagged protein, GDP-loaded (Homo sapiens, UniProt P01116, G12C)
T1 construct: KRAS G12C 1-169, his-tagged protein, GDP-loaded
Experiment: KRAS G12C covalent binding (% modification) by mass spectrometry, ten or three minute incubation
Settings: covalent binding to KRAS G12C, % modification after a three minute incubation period
Summary of the method: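 GDP-loaded protein in 20 mM Hepes, 150 mM NaCl, 1 mM MgCl2 was incubated with compound (final 100, 30 or 10 μM; 2% DMSO) at room temperature, then quenched with formic acid. Intact-protein LC-MS with charge-envelope deconvolution gave masses and intensities of modified and unmodified species.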

Row | SMILES | Binding %
1 | C=CC(=O)N1C[C@H](C)N(c2nc(OCCn3ccnc3C#N)nc3c(F)c(-c4c(C)ccc5[nH]ncc45)c(Cl)cc23)C[C@H]1C [Compound 279, 1-(2-((4-((2S,5R)-4-acryloyl-2,5-dimethylpiperazin-1-yl)-6-chloro-8-fluoro-7-(5-methyl-1H-indazol-4-yl)quinazolin-2-yl)oxy)ethyl)-1H-imidazole-2-carbonitrile] | ++ (++ indicates binding activity from 50 to 90%)
2 | C=CC(=O)N1C[C@H](C)N(c2nc(OCC(C)(C)O)nc3c(F)c(-c4c(O)cccc4F)c(Cl)cc23)C[C@H]1C [Compound 281, 1-((2R,5S)-4-(6-chloro-8-fluoro-7-(2-fluoro-6-hydroxyphenyl)-2-(2-hydroxy-2-methylpropoxy)quinazolin-4-yl)-2,5-dimethylpiperazin-1-yl)prop-2-en-1-one] | ++ (++ indicates binding activity from 50 to 90%)
3 | C=CC(=O)N1C[C@H](C)N(c2nc(OCCn3ccnc3CC)nc3c(F)c(-c4c(C)ccc5[nH]ncc45)c(Cl)cc23)C[C@H]1C [Compound 283, 1-((2R,5S)-4-(6-chloro-2-(2-(2-ethyl-1H-imidazol-1-yl)ethoxy)-8-fluoro-7-(5-methyl-1H-indazol-4-yl)quinazolin-4-yl)-2,5-dimethylpiperazin-1-yl)prop-2-en-1-one] | +++ (+++ indicates binding activity greater than 90%)
4 | C=CC(=O)N1C[C@H](C)N(c2nc(N3CC(N(C)C)C3)nc3c(F)c(-c4c[nH]c5ccccc45)c(Cl)cc23)C[C@H]1C [Compound 285, 1-((2R,5S)-4-(6-chloro-2-(3-(dimethylamino)azetidin-1-yl)-8-fluoro-7-(1H-indol-3-yl)quinazolin-4-yl)-2,5-dimethylpiperazin-1-yl)prop-2-en-1-one] | + (+ indicates binding activity greater than 0% and up to 50%)
5 | C=CC(=O)N1C[C@H](C)N(c2nc(N3CC(N(C)C)C3)nc3c(F)c(-c4c(C)ccc5[nH]nc(I)c45)c(Cl)cc23)C[C@H]1C [Compound 286, 1-((2R,5S)-4-(6-chloro-2-(3-(dimethylamino)azetidin-1-yl)-8-fluoro-7-(3-iodo-5-methyl-1H-indazol-4-yl)quinazolin-4-yl)-2,5-dimethylpiperazin-1-yl)prop-2-en-1-one] | +++ (+++ indicates binding activity greater than 90%)
6 | C=CC(=O)N1C[C@H](C)N(c2nc(N3CC(N(C)C)C3)nc3c(F)c(-c4c(C)[nH]c5ccccc45)c(Cl)cc23)C[C@H]1C [Compound 287, 1-((2R,5S)-4-(6-chloro-2-(3-(dimethylamino)azetidin-1-yl)-8-fluoro-7-(2-methyl-1H-indol-3-yl)quinazolin-4-yl)-2,5-dimethylpiperazin-1-yl)prop-2-en-1-one] | + (+ indicates binding activity greater than 0% and up to 50%)
7 | C=CC(=O)N1C[C@H](C)N(c2nc(N3CC(N(C)C)C3)nc3c(F)c(-c4c[nH]c5cccc(F)c45)c(Cl)cc23)C[C@H]1C [Compound 290, 1-((2R,5S)-4-(6-chloro-2-(3-(dimethylamino)azetidin-1-yl)-8-fluoro-7-(4-fluoro-1H-indol-3-yl)quinazolin-4-yl)-2,5-dimethylpiperazin-1-yl)prop-2-en-1-one] | + (+ indicates binding activity greater than 0% and up to 50%)
8 | C=CC(=O)N1C[C@H](C)N(c2nc(N3CC(N(C)C)C3)nc3c(F)c(-c4c[nH]c5cccc(C)c45)c(Cl)cc23)C[C@H]1C [Compound 291, 1-((2R,5S)-4-(6-chloro-2-(3-(dimethylamino)azetidin-1-yl)-8-fluoro-7-(4-methyl-1H-indol-3-yl)quinazolin-4-yl)-2,5-dimethylpiperazin-1-yl)prop-2-en-1-one] | + (+ indicates binding activity greater than 0% and up to 50%)
9 | C=CC(=O)N1C[C@H](C)N(c2nc(N3CC(N(C)C)C3)nc3c(F)c(-c4c(C)ccc5[nH]nc(C#N)c45)c(Cl)cc23)C[C@H]1C [Compound 292, 4-(4-((2S,5R)-4-acryloyl-2,5-dimethylpiperazin-1-yl)-6-chloro-2-(3-(dimethylamino)azetidin-1-yl)-8-fluoroquinazolin-7-yl)-5-methyl-1H-indazole-3-carbonitrile] | ++ (++ indicates binding activity from 50 to 90%)
10 | C=CC(=O)N1C[C@H](C)N(c2nc(OCCc3nccn3C)nc3c(F)c(-c4c(C)ccc5[nH]ncc45)c(Cl)cc23)C[C@H]1C [Compound 293, 1-((2R,5S)-4-(6-chloro-8-fluoro-2-(2-(1-methyl-1H-imidazol-2-yl)ethoxy)-7-(5-methyl-1H-indazol-4-yl)quinazolin-4-yl)-2,5-dimethylpiperazin-1-yl)prop-2-en-1-one] | ++ (++ indicates binding activity from 50 to 90%)
11 | C=CC(=O)N1C[C@H](C)N(c2nc(N3CC(N(C)C)C3)nc3c(F)c(-c4c[nH]c5c(F)cccc45)c(Cl)cc23)C[C@H]1C [Compound 294, 1-((2R,5S)-4-(6-chloro-2-(3-(dimethylamino)azetidin-1-yl)-8-fluoro-7-(7-fluoro-1H-indol-3-yl)quinazolin-4-yl)-2,5-dimethylpiperazin-1-yl)prop-2-en-1-one] | + (+ indicates binding activity greater than 0% and up to 50%)
12 | C=CC(=O)N1C[C@H](C)N(c2nc(N3CC(N(C)C)C3)nc3c(F)c(-c4n[nH]c5ccccc45)c(Cl)cc23)C[C@H]1C [Compound 295, 1-((2R,5S)-4-(6-chloro-2-(3-(dimethylamino)azetidin-1-yl)-8-fluoro-7-(1H-indazol-3-yl)quinazolin-4-yl)-2,5-dimethylpiperazin-1-yl)prop-2-en-1-one] | + (+ indicates binding activity greater than 0% and up to 50%)
13 | C=CC(=O)N1C[C@H](C)N(c2nc(N3CC(N(C)C)C3)nc3c(F)c(-c4c(C)ccc5[nH]nc(C(N)=O)c45)c(Cl)cc23)C[C@H]1C [Compound 296, 4-(4-((2S,5R)-4-acryloyl-2,5-dimethylpiperazin-1-yl)-6-chloro-2-(3-(dimethylamino)azetidin-1-yl)-8-fluoroquinazolin-7-yl)-5-methyl-1H-indazole-3-carboxamide] | ++ (++ indicates binding activity from 50 to 90%)
14 | C=CC(=O)N1C[C@H](C)N(c2nc(N3CC(N(C)C)C3)nc3c(F)c(-c4c(C)ccc5[nH]nc([N+](=O)[O-])c45)c(Cl)cc23)C[C@H]1C [Compound 297, 1-((2R,5S)-4-(6-chloro-2-(3-(dimethylamino)azetidin-1-yl)-8-fluoro-7-(5-methyl-3-nitro-1H-indazol-4-yl)quinazolin-4-yl)-2,5-dimethylpiperazin-1-yl)prop-2-en-1-one] | + (+ indicates binding activity greater than 0% and up to 50%)
15 | C=CC(=O)N1C[C@H](C)N(c2nc(N3CC(N(C)C)C3)nc3c(F)c(-c4c(C)ccc5[nH]nc(N)c45)c(Cl)cc23)C[C@H]1C [Compound 298, 1-((2R,5S)-4-(7-(3-amino-5-methyl-1H-indazol-4-yl)-6-chloro-2-(3-(dimethylamino)azetidin-1-yl)-8-fluoroquinazolin-4-yl)-2,5-dimethylpiperazin-1-yl)prop-2-en-1-one] | ++ (++ indicates binding activity from 50 to 90%)
16 | C=CC(=O)N1C[C@H](C)N(c2nc(N3CC(N(C)C)C3)nc3c(F)c(-c4c(C)ccc5[nH]nc(CO)c45)c(Cl)cc23)C[C@H]1C [Compound 299, 1-((2R,5S)-4-(6-chloro-2-(3-(dimethylamino)azetidin-1-yl)-8-fluoro-7-(3-(hydroxymethyl)-5-methyl-1H-indazol-4-yl)quinazolin-4-yl)-2,5-dimethylpiperazin-1-yl)prop-2-en-1-one] | ++ (++ indicates binding activity from 50 to 90%)
17 | C=CC(=O)N1C[C@H](C)N(c2nc(N3CC(N(C)C)C3)nc3c(F)c(-c4c[nH]c5ncccc45)c(Cl)cc23)C[C@H]1C [Compound 300, 1-((2R,5S)-4-(6-chloro-2-(3-(dimethylamino)azetidin-1-yl)-8-fluoro-7-(1H-pyrrolo[2,3-b]pyridin-3-yl)quinazolin-4-yl)-2.5-dimethylpiperazin-1-yl)prop-2-en-1-one] | + (+ indicates binding activity greater than 0% and up to 50%)
18 | C=CC(=O)N1C[C@H](C)N(c2nc(N3CC(N(C)CCCCCN=[N+]=[N-])C3)nc3c(F)c(-c4c(O)cccc4F)c(Cl)cc23)C[C@H]1C [Compound 301, 1-((2R,5S)-4-(2-(3-((5-azidopentyl)(methyl)amino)azetidin-1-yl)-6-chloro-8-fluoro-7-(2-fluoro-6-hydroxyphenyl)quinazolin-4-yl)-2,5-dimethylpiperazin-1-yl)prop-2-en-1-one] | ++ (++ indicates binding activity from 50 to 90%)
19 | C=CC(=O)N1C[C@H](C)N(c2nc(OCCc3cn(C(C)C)cn3)nc3c(F)c(-c4c(O)cccc4F)c(Cl)cc23)C[C@H]1C [Compound 302, 1-((2R,5S)-4-(6-chloro-8-fluoro-7-(2-fluoro-6-hydroxyphenyl)-2-(2-(1-isopropyl-1H-imidazol-4-yl)ethoxy)quinazolin-4-yl)-2,5-dimethylpiperazin-1-yl)prop-2-en-1-one] | +++ (+++ indicates binding activity greater than 90%)

— patent US11021470B2, “2-substituted quinazoline compounds comprising a substituted heterocyclic group and methods of use thereof” (Araxes Pharma LLC, priority 2015, dated 2021)
